The conditions of data set [1]: cited from earlier work.
A short description of data set [2]: Mouse study: body weight at necropsy. The format is in vivo, mouse (BALB/cAnNCrl, male). Particulars: SiO2 left flank, SiO2 with meloxicam right flank, s.c. 0.1 ml. The method, then: A mouse study was carried out using 15 animals from University of Turku, Central Animal Laboratory, Pharmacity breeding unity. All animals were BALB/cAnNCrl, male. The animals were acclimatised for 15 days. No period of isolation was needed. At the start of the study the animals were aged 10-13 weeks and weighed 28.9 g±1.38 g (min. 26.6 g, max 31.1 g).
Administration of the test items was carried out according to the study design set out in Table 3. The test item was administered by subcutaneous (back) injection using a syringe and an 18G needle at a dose volume of 0.1 ml/mouse.
Animals were weighed and euthanized (CO2) at the end of the experiment (Animals #1, 2, and 3 were not weighed). The injection sites were macroscopically observed and digital pictures from test items in soft tissue was taken at the each time point. The test item (gel) was removed from a soft tissue when possible.

The nature of data set [3]: Concentration of meloxicam in plasma of dogs after single subcutaneous silica hydrogel depot. The note with it: dog, sc, 3.16 mg meloxicam/kg bodyweight, single s.c. silica hydrogel depot. The data set is classed as in vivo. The method, then:
Example 1 relates to animal studies carried out. […] The appropriate dose of TI was administered subcutaneously as a one off dose at the area behind the shoulder blade.

The conditions of data set [4]: dogs, single oral administration; cited from earlier work.
Where [5] appears, read: Animal 4, necropsy 7 days after injections.
Where [6] appears, read: Animal 7, necropsy 14 days after injections.
Where [7] appears, read: Animal 10, necropsy 28 days after injections.

In the case of `CC(C(=O)O)c1ccc2c(c1)[nH]c1ccc(Cl)cc12` (centres unmarked) [carprofen], the Solubility in water result in data set [1] is reported as “practically insoluble in water”.
For the compound `Cc1cnc(NC(=O)C2=C(O)c3ccccc3S(=O)(=O)N2C)s1` [meloxicam], the values for the Weight at necropsy in data set [2] (setting [5]), in data set [2] (setting [6]) and in data set [2] (setting [7]) were 27.3 g, 29.0 g and 32.7 g, respectively. For the same compound, the Weight gain was -0.7 g in data set [2] (setting [5]), 0.0 g in data set [2] (setting [6]) and 1.6 g in data set [2] (setting [7]). Further, the concentration at 0 hours in data set [3] (Dog 1, 0.0 hours) amounted to 0 ng/mL; in data set [3] (Dog 2, 0.0 hours), 0 ng/mL; in data set [3] (Dog 3, 0.0 hours) it was 0 ng/mL. Further, the concentration at 0.5 hours in data set [3] (Dog 1, 0.5 hours) turned out to be 43.2 ng/mL; in data set [3] (Dog 2, 0.5 hours) it was 27 ng/mL; in data set [3] (Dog 3, 0.5 hours), 27.1 ng/mL. Further, the concentration at 1 hours in data set [3] (Dog 1, 1.0 hours) was 132 ng/mL; in data set [3] (Dog 2, 1.0 hours), 76 ng/mL; in data set [3] (Dog 3, 1.0 hours) it was 93.9 ng/mL. Moreover, the concentration at 2 hours turned out to be 296 ng/mL in data set [3] (Dog 1, 2.0 hours); 153 ng/mL in data set [3] (Dog 2, 2.0 hours); 215 ng/mL in data set [3] (Dog 3, 2.0 hours). In addition, the concentration at 3 hours worked out at 379 ng/mL in data set [3] (Dog 1, 3.0 hours); 227 ng/mL in data set [3] (Dog 2, 3.0 hours); 301 ng/mL in data set [3] (Dog 3, 3.0 hours). Besides, the concentration at 4 h in data set [3] (Dog 1, 4.0 hours) is 402 ng/mL; in data set [3] (Dog 2, 4.0 hours) it was 257 ng/mL; in data set [3] (Dog 3, 4.0 hours), 319 ng/mL. Moreover, the concentration at 6 h came out at 375 ng/mL in data set [3] (Dog 1, 6.0 hours); 349 ng/mL in data set [3] (Dog 2, 6.0 hours); 359 ng/mL in data set [3] (Dog 3, 6.0 hours). Also, the concentration at 8 h stood at 294 ng/mL in data set [3] (Dog 1, 8.0 hours); 344 ng/mL in data set [3] (Dog 2, 8.0 hours); 404 ng/mL in data set [3] (Dog 3, 8.0 hours). In addition, the concentration at 12 h was determined as 363 ng/mL in data set [3] (Dog 1, 12.0 hours); 447 ng/mL in data set [3] (Dog 2, 12.0 hours); 559 ng/mL in data set [3] (Dog 3, 12.0 hours). The concentration at 504 h came out at 4.3 ng/mL in data set [3] (Dog 1, 504.0 hours); 115 ng/mL in data set [3] (Dog 2, 504.0 hours); 33.1 ng/mL in data set [3] (Dog 3, 504.0 hours). The concentration at 576 h worked out at 2.6 ng/mL in data set [3] (Dog 1, 576.0 hours); 101 ng/mL in data set [3] (Dog 2, 576.0 hours); 16.6 ng/mL in data set [3] (Dog 3, 576.0 hours). Moreover, the concentration at 672 h in data set [3] (Dog 1, 672.0 hours) was 1.5 ng/mL. Besides, the concentration at 840 hours is 1 ng/mL in data set [3] (Dog 1, 840.0 hours); 40.1 ng/mL in data set [3] (Dog 2, 840.0 hours); 6.5 ng/mL in data set [3] (Dog 3, 840.0 hours). Also, the concentration at 1008 hours in data set [3] (Dog 1, 1008.0 hours) stood at 0.9 ng/mL; in data set [3] (Dog 2, 1008.0 hours), 17.9 ng/mL; in data set [3] (Dog 3, 1008.0 hours) it was 5.6 ng/mL. Further, the concentration at 1176 hours in data set [3] (Dog 1, 1176.0 hours) was found to be 0.5 ng/mL; in data set [3] (Dog 2, 1176.0 hours) it was 5.6 ng/mL; in data set [3] (Dog 3, 1176.0 hours), 3 ng/mL. The concentration at 1344 hours is 0.4 ng/mL in data set [3] (Dog 1, 1344.0 hours); 2.6 ng/mL in data set [3] (Dog 2, 1344.0 hours); 2.4 ng/mL in data set [3] (Dog 3, 1344.0 hours). For the same compound, the concentration at 672 hours in data set [3] (Dog 2, 672.0 hours) worked out at 67.3 ng/mL; in data set [3] (Dog 3, 672.0 hours), 11.6 ng/mL. Further, in data set [1] (methanol), the Solubility in methanol result is given as “very slightly soluble”. In data set [1] (strong acids and bases, compared with water), the “Solubility in strong acids and bases” value is “higher solubility”. Further, the Solubility in water entry in data set [1] is on record as “practically insoluble in water”.
For `NS(=O)(=O)c1ccc(-n2nc(C(F)(F)F)cc2-c2ccc(F)cc2)cc1` [Mavacoxib], the “Time a therapeutic level is maintained” value in data set [4] was “one month”.

The record behind these values is patent US10548843B2, “Sustained-release silica composite depot non-steroidal anti-inflammatory drug delivery” (Solani Therapeutics, priority 2015, dated 2020).
